According to publication PMC12078333, “Pharmacokinetic evaluation and bioavailability of KPT-335 (Verdinexor) in cats” (Frontiers in Veterinary Science, 2025):
Values joined by “and” are separate entries in the source; they are usually repeats but may differ in a detail not shown here. Identical values can stand only once. Like-named read-outs stand apart in the source and are kept apart here.

Assay: Pharmacokinetics study of KPT-335 in cats (i.v. injection, p.o. capsules and tablets; UPLC-MS/MS, non-compartmental analysis)
Assay type: in vivo
Details: cats; for bioavailability / k el / Tmax / MRT last / AUC(0-inf) / AUC(0-t) / Cmax: both sexes, plasma, po; for k el: read-out: Lambda_z (converted); for Tmax: read-out: Tmax; for AUC(0-inf): read-out: AUCINF_obs; for AUC(0-t): read-out: AUClast; for Cmax: read-out: Cmax; for Plasma concentration: individual cats 1-6
Protocol: In this study, a parallel trial design was employed, 42 adult domestic cats (21 males and 21 females), aged 1 to 2 years and weighing 2.5 ± 0.25 kg. Cats were grouped by random number, with half male and female in each group, and all cats were determined to be systemically healthy during an initial screening visit 1 week prior to the experiment. They were acclimatized to the laboratory environment for 7 days before the study commenced. During this period, they were kept in solitary cages with free access to water. Cats in the fasting group were deprived of food for 12 h prior to and 2 h following drug administration, while those in the feeding group were fed twice a day. Food and water sources were consistent throughout the trail. During and at the end of the experiment, we systematically assessed the adverse reactions by recording parameters such as body weight, behavior, and coat gloss in all test cats both before and after the trial. These observations were conducted to evaluate whether any adverse reactions occurred. All procedures were reviewed and approved by the Institutional Animal Care and Use Committee of China Agricultural University (11305-23-E-002).
The UPLC-MS/MS system utilized a UPLC 1290 (Agilent) paired with a Phenomenex Kinetex C18 column (50 mm × 2.1 mm, 2.6 μm) for separation at a flow rate of 0.3 mL/min. The chromatographic mobile phase comprised water (A) and acetonitrile (B), both containing 0.1% formic acid. The gradient elution program was as follows: from 0.5 to 2.5 min, 10 to 95% B; from 2.5 to 4.5 min, 95% B; from 4.5 to 4.6 min, 95 to 10% B; and from 4.6 to 6.0 min, 10% B. The injection volume was 2 μL.
For mass spectrometry, an Agilent 6,475-LC-TQ equipped with an electrospray ion source was used. Multiple Reaction Monitoring (MRM) was selected to quantify KPT-335 in the positive ion mode. The ion transitions monitored were m/z 443.1 → 334.0 and 443.1 → 110.1 for KPT-335, and m/z 444.1 → 334.0 for the internal standard (IS). The cone voltage and collision energy were optimized for KPT-335 and the IS individually, set at 160 V and 25 eV, respectively. The optimized parameters for the instrument included an ion source temperature of 350°C, solvent removal temperature of 320°C, capillary voltage of 3.0 kV, and a solvent gas flow rate of 300 L/h.
The method was developed based on prior research conducted in the laboratory ([16]) and validated in accordance with international guidelines ([17]). The calibration concentration range for KPT-335 spanned from 0.5 to 100 ng/mL, with a lower limit of quantification (LLOQ) set at 0.5 ng/mL. The squared correlation coefficient (R^2) values exceeded 0.999, indicating high linearity.
For sample preparation, 100 μL of plasma was mixed with 10 μL of internal standard (IS) and 900 μL of acetonitrile, followed by vortexing for 2 min. The mixture was then centrifuged at 13,400 × g at 4°C for 10 min. The supernatant was filtered through a 0.22 μm organic membrane, and the resulting sample was analyzed using UPLC-MS/MS.
Cats were divided into seven groups, with six cats in each group. In the intravenous (i.v.) group (Group 1), cats received an injection of KPT-335 at a dosage of 1 mg/kg body weight (BW), administered via a bolus through a venous infusion needle. For the oral (p.o.) administration, cats were given capsules in a fasting state at doses of 0.2 mg/kg BW (Group 2), 1 mg/kg BW (Group 3), and 2 mg/kg BW (Group 4). Additionally, tablets were administered at 1 mg/kg BW (fasting, Group 5), 1 mg/kg BW (Group 6), and 2 mg/kg BW (Group 7) in a feeding state, followed by 3 mL of water delivered with a syringe.
For the p.o. administration, blood samples of 1.5 mL were collected via the brachial cephalic vein prior to administration and at 0.167, 0.333, 0.5, 0.75, 1, 1.5, 2, 4, 6, 8, 12, 24, 32, and 48 h post-administration. […]

[1] = 0.2 mg/kg, p.o., Capsule, Fasting, 0.2 mg/kg BW
[2] = 1 mg/kg, p.o., Capsule, Fasting, 1 mg/kg BW
[3] = 1 mg/kg, p.o., Tablet, Fasting, 1 mg/kg BW
[4] = 1 mg/kg, p.o., Tablet, Feeding, 1 mg/kg BW
[5] = 2 mg/kg, p.o., Capsule, Fasting, 2 mg/kg BW
[6] = 2 mg/kg, p.o., Tablet, Feeding, 2 mg/kg BW
[7] = capsule group, 0.2–2 mg/kg BW, reference 95% CI 0.90–1.10

O=C(/C=C\n1cnc(-c2cc(C(F)(F)F)cc(C(F)(F)F)c2)n1)NNc1ccccn1 [KPT-335]
bioavailability (0.2 mg/kg, p.o., Capsule, Fasting, 0.2 mg/kg BW, read-out: F (absolute bioavailability)): 43.7% | k el [1]: 3.33e-05 s⁻¹ | Tmax [1]: 2.46 ± 2.75 h | MRT last (1 mg/kg, Capsule, Fasting, 1 mg/kg BW): 5.94 ± 1.05 h | MRT last (1 mg/kg, Tablet, Fasting, 1 mg/kg BW): 8.07 ± 1.73 h | MRT last (1 mg/kg, Tablet, Feeding, 1 mg/kg BW): 5.8 ± 1.61 h | bioavailability (1 mg/kg, doses of 1 mg/kg BW, read-out: bioavailability of commercial tablets): ~70% | AUC(0-inf) [2]: 1420 ± 490 ng·h/mL | AUC(0-t) [2]: 1420 ± 489 ng·h/mL | Cmax [2]: 260 ± 75 ng/mL | bioavailability (1 mg/kg, p.o., Capsule, Fasting, 1 mg/kg BW, read-out: F (absolute bioavailability)): 44.7% | k el [2]: 3.61e-05 s⁻¹ | Tmax [2]: 1.25 ± 0.39 h | AUC(0-inf) [3]: 2430 ± 805 ng·h/mL | AUC(0-t) [3]: 2410 ± 793 ng·h/mL | Cmax [3]: 264 ± 129 ng/mL | bioavailability (1 mg/kg, p.o., Tablet, Fasting, 1 mg/kg BW, read-out: F (absolute bioavailability)): 75.9% | k el [3]: 3.61e-05 s⁻¹ | Tmax [3]: 1.79 ± 1.17 h | AUC(0-inf) [4]: 2270 ± 1260 ng·h/mL | AUC(0-t) [4]: 2250 ± 1260 ng·h/mL | Cmax [4]: 364 ± 145 ng/mL | bioavailability (1 mg/kg, p.o., Tablet, Feeding, 1 mg/kg BW, read-out: F (absolute bioavailability)): 71% | k el [4]: 5e-05 s⁻¹ | Tmax [4]: 1.33 ± 0.41 h | MRT last (2 mg/kg, Capsule, Fasting, 2 mg/kg BW): 7.57 ± 1.94 h | MRT last (2 mg/kg, Tablet, Feeding, 2 mg/kg BW): 5.07 ± 0.69 h | AUC(0-inf) [5]: 1850 ± 819 ng·h/mL | AUC(0-t) [5]: 1840 ± 819 ng·h/mL | Cmax [5]: 280 ± 175 ng/mL | bioavailability (2 mg/kg, p.o., Capsule, Fasting, 2 mg/kg BW, read-out: F (absolute bioavailability)): 28.9% | k el [5]: 2.78e-05 s⁻¹ | Tmax [5]: 1.58 ± 0.38 h | AUC(0-inf) [6]: 3010 ± 715 ng·h/mL | AUC(0-t) [6]: 3000 ± 711 ng·h/mL | Cmax [6]: 559 ± 104 ng/mL | bioavailability (2 mg/kg, p.o., Tablet, Feeding, 2 mg/kg BW, read-out: F (absolute bioavailability)): 47.3% | k el [6]: 5.83e-05 s⁻¹ | Tmax [6]: 1.58 ± 0.2 h | bioavailability (doses of 0.2–1 mg/kg BW, read-out: absolute bioavailability of capsules): ~40% | dose linearity of pharmacokinetics (0.2–2 mg/kg BW dosage range): not to exhibit linear pharmacokinetics | differences in pharmacokinetic parameters (Cmax and AUClast) between male and female cats (all groups): no statistically significant differences | 95% confidence interval of β, dose vs AUClast [7]: 0.63–1.11 | 95% confidence interval of β, dose vs Cmax [7]: 0.79–1.30 | Plasma concentration (capsule p.o. 0.2 mg/kg BW, 1.5 h, 0.2 mg/kg, in ng/mL): 15.20 and 20.46 and 38.22 and 14.31 and 22.72 and 26.72 | Plasma concentration (capsule p.o. 0.2 mg/kg BW, 2 h, 0.2 mg/kg, in ng/mL): 13.60 and 18.16 and 33.66 and 26.22 and 20.79 and 22.21 | Plasma concentration (capsule p.o. 0.2 mg/kg BW, 4 h, 0.2 mg/kg): 8.71 ng/mL | Plasma concentration (capsule p.o. 0.2 mg/kg BW, 4 h, 0.2 mg/kg, in ng/mL): 14.86 and 24.97 and 21.41 and 17.43 and 19.90 | Plasma concentration (capsule p.o. 0.2 mg/kg BW, 6 h, 0.2 mg/kg): 6.19 ng/mL | Plasma concentration (capsule p.o. 0.2 mg/kg BW, 6 h, 0.2 mg/kg, in ng/mL): 20.30 and 16.23 and 18.02 and 15.34 | Plasma concentration (capsule p.o. 0.2 mg/kg BW, 32 h, 0.2 mg/kg): BLOQ | Plasma concentration (capsule p.o. 0.2 mg/kg BW, 48 h): BLOQ | Plasma concentration (capsule p.o. 1 mg/kg BW, 48 h, 1 mg/kg): BLOQ | Plasma concentration (i.v. 1 mg/kg BW, 0.083 h, 1 mg/kg, in ng/mL): 1162.77 and 332.48 and 914.52 and 894.65 and 827.83 and 934.74 | Plasma concentration (i.v. 1 mg/kg BW, 0.167 h, 1 mg/kg, in ng/mL): 1202.33 and 331.12 and 812.32 and 891.11 and 808.43 and 825.26 | Plasma concentration (i.v. 1 mg/kg BW, 0.25 h, 1 mg/kg, in ng/mL): 1058.99 and 320.82 and 769.91 and 863.19 and 750.36 and 838.90 | Plasma concentration (i.v. 1 mg/kg BW, 0.33 h, 1 mg/kg, in ng/mL): 996.69 and 292.96 and 774.12 and 852.52 and 723.28 and 760.14 | Plasma concentration (i.v. 1 mg/kg BW, 0.5 h, 1 mg/kg, in ng/mL): 935.15 and 297.11 and 736.77 and 700.75 and 649.99 and 680.18 | Plasma concentration (i.v. 1 mg/kg BW, 0.75 h, 1 mg/kg, in ng/mL): 709.09 and 236.62 and 633.10 and 524.38 and 509.94 and 541.50
